Data on 13 compounds can be found in US20260364184A1, “COMPOUND BASED ON OXOISOINDOLINYL-SUBSTITUTED TETRAHYDROPYRIMIDINE-DIONE AND USE THEREOF” (GLUETACS THERAPEUTICS (SHANGHAI) CO., LTD., priority 2023, published 2026).

Each structure is given as a SMILES string.

What all share (type): cell-based
Assay [1] concerns Human myeloid monocytic leukemia cell line (MV-4-11). As to the kind of experiment: Inhibition of MV-4-11 cell proliferation (CellTiter luminescent viability). To be noted: Homo sapiens, MV4-11, Table IL2, BCR-ABL inhibitor-based, 96 hours. Summed up:
(§1)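 IC50 is fitted from luminescent viability (CellTiter-Meiluncell) curves. Nine-point, 5-fold dilution series (top stock 2000 μM) are added at 0.5 μL per 100 μL medium to cells plated the day before, with growth at 37 °C and 5% CO2.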

Assay [2] concerns the target T1, C-ABL (Homo sapiens, UniProt P00519).
T1 construct: K562 also holds p210 BCR-ABL (BCR P11274 fused to ABL1)
As to the kind of experiment: Western blot degradation of C-ABL. To be noted: K562 Cell; 24 hours. Here is the method:
(§2) Conventional Western blot assay was performed to evaluate the effects of the compounds of the present disclosure on the expression of target proteins in cells.
(§3) (1) Cell Seeding and Protein Harvesting: The selected cells were processed according to the cell seeding procedure and protein harvesting procedure in Table II-2.
(§4) (2) To the collected supernatant, 5×SDS sample loading buffer was added, followed by denaturation at 95 °C for 5 minutes. The denatured samples were then separated by SDS-PAGE electrophoresis on a polyacrylamide gel. Proteins were transferred to a nitrocellulose membrane (0.45 μm NC membrane), blocked with blocking buffer at room temperature for 1 hour, and subjected to antibody incubation and development procedures according to the antibody manufacturer's instructions (Cell Signaling Technology).
(§5) Half-Maximal Degradation Concentration value (the drug concentration required for degrading proteins by 50%, abbreviated as DC50) reads method: comparing the grayscale values of Western blot bands from drug-treated samples with those from blank DMSO-treated controls, and identifying the drug concentration range at which the grayscale value is half that of the DMSO-treated control bands.
(§6) DC50 values can be calculated using ImageJ software to measure grayscale values of Western blot bands from drug-treated samples. The concentration-response curve is fitted to estimate the drug concentration corresponding to half the grayscale value.
(§7) Target protein remaining (%) refers to the percentage of target protein remaining in cells after treatment with protein degrader compounds.
(§8) Calculation method for target protein remaining (%): Use ImageJ software to measure grayscale values of Western blot bands from drug (protein degrader)-treated samples. The grayscale value of drug-treated bands is divided by that of internal control protein bands, and the resulting quotient is normalized to obtain the relative percentage of remaining target protein after protein degrader treatment.
(§9) Target protein degradation rate (%)=1−target protein remaining (%).
Background: A western blot detects proteins with antibodies after separation by electrophoresis.

Assay [3] concerns the target T2, BRM (Homo sapiens, UniProt P51531).
T2 construct: expression of target proteins in cells; endogenous in cells
As to the kind of experiment: Western blot degradation of BRM (SMARCA2). To be noted: Molt-4 Cell; 24 hours. Here is the method:
as §2, §3, §4, §5, §6, §7, §8, §9

Assay [4] has as its target T3, BRG1 (Homo sapiens, UniProt P51532).
T3 construct: expression of target proteins in cells; endogenous in cells
As to the kind of experiment: Western blot degradation of BRG1 (SMARCA4). To be noted: Molt-4 Cell; 24 hours. Here is the method: as §2, §3, §4, §5, §6, §7, §8, §9

Assay [5] relates to Human acute lymphocytic leukemia T lymphocytes cell line (CCRF-CEM). As to the kind of experiment: Inhibition of CCRF-CEM cell proliferation (CellTiter luminescent viability). To be noted: Homo sapiens, 96 h, Table IL3, BCR-ABL inhibitor-based.
The subject of assay [6] is Human Multiple myeloma cell line (MM.1S). As to the kind of experiment: Inhibition of MM.1S cell proliferation (CellTiter luminescent viability). As to conditions: Homo sapiens, MM1.S, Table IL1, BCR-ABL inhibitor-based, 96 hours. A digest of the protocol:
as §1

The mark [7] stands for this setting: 10 nM, read-out: Inhibition Rate at 10 nM (%).
Where [8] appears, read: 500 nM, read-out: Inhibition Rate at 500 nM (%).

T1 sequence (P00519 whole entry, the tested form may be a part): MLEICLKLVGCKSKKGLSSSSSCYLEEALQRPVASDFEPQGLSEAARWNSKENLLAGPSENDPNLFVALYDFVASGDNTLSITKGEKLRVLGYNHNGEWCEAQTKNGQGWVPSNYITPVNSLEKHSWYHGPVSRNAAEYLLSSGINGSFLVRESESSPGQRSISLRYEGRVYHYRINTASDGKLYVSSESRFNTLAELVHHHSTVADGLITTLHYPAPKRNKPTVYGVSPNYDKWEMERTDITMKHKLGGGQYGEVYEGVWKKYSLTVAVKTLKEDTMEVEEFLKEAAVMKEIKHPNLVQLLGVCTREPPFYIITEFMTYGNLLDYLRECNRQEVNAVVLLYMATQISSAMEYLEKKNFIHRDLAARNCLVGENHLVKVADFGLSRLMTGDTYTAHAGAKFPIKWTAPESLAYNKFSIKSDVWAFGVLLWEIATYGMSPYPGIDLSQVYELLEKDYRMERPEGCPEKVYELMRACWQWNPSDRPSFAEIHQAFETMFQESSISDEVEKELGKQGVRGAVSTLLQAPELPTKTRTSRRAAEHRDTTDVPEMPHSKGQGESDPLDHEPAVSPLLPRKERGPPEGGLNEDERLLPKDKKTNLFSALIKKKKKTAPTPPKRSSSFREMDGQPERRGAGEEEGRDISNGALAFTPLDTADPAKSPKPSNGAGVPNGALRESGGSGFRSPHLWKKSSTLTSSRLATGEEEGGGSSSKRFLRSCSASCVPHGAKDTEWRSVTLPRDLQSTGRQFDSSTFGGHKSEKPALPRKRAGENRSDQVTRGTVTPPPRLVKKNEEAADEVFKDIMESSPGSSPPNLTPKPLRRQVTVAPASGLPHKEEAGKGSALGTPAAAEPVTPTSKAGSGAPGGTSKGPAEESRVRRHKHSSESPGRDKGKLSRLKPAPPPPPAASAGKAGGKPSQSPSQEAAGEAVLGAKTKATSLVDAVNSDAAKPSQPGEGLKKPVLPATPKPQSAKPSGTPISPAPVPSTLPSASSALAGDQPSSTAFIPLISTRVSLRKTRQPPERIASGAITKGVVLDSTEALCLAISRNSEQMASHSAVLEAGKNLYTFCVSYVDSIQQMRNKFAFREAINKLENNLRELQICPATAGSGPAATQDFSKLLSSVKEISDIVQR
T1 sequence (Q96SW2 whole entry partner, the tested form may be a part): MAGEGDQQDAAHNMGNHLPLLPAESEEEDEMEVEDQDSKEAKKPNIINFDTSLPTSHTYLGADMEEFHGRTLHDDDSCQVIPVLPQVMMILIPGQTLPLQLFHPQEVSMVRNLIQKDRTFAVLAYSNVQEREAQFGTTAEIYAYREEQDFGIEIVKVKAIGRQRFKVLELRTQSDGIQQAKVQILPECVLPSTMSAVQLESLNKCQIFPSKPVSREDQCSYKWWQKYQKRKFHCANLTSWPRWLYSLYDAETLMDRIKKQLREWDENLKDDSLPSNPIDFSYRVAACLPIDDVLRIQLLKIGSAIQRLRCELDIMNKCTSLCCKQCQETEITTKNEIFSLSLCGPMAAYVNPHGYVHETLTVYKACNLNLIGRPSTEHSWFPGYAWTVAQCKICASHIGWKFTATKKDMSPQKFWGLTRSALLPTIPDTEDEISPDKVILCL
T3 sequence (P51532 whole entry): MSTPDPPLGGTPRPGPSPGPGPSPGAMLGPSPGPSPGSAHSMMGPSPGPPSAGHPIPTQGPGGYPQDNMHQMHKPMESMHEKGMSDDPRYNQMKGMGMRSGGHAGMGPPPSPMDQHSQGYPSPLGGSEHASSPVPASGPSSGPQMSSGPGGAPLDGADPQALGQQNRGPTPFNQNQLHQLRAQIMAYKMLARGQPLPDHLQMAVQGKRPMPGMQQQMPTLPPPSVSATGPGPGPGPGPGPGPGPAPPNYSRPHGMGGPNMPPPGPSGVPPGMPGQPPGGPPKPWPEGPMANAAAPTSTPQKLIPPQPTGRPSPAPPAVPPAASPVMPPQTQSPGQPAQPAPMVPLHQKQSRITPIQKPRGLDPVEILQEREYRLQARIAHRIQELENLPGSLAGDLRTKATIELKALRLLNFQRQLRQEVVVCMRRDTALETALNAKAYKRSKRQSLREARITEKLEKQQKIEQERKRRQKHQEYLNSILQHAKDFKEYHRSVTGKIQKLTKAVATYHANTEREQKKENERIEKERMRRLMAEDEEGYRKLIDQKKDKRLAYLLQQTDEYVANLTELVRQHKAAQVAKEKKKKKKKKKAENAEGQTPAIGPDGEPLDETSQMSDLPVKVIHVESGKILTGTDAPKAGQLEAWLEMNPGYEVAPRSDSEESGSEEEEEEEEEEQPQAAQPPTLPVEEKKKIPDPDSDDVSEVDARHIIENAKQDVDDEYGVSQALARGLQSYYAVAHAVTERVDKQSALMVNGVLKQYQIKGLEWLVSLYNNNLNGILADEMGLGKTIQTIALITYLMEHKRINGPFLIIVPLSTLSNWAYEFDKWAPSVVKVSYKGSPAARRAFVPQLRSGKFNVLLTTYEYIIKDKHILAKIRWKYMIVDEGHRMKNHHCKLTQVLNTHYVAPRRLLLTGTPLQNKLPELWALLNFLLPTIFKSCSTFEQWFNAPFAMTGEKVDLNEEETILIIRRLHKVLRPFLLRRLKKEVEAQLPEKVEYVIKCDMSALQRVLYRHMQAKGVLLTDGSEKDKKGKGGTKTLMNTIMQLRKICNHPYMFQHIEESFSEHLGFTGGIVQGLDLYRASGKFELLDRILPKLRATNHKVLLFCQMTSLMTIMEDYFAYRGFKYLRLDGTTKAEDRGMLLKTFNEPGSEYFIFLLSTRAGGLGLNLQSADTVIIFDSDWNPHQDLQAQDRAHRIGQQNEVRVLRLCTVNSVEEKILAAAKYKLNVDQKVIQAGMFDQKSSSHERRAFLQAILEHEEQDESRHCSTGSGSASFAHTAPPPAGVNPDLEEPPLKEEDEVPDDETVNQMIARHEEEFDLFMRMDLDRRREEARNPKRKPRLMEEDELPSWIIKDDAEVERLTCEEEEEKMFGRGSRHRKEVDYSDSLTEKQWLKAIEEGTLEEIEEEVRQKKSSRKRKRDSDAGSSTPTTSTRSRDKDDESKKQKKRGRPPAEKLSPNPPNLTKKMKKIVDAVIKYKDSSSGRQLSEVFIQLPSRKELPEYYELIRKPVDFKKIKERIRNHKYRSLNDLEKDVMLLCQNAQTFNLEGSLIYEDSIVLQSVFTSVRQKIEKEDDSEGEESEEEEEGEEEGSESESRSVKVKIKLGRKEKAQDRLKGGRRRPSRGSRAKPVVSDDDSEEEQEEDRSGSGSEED
T2 sequence (P51531 whole entry): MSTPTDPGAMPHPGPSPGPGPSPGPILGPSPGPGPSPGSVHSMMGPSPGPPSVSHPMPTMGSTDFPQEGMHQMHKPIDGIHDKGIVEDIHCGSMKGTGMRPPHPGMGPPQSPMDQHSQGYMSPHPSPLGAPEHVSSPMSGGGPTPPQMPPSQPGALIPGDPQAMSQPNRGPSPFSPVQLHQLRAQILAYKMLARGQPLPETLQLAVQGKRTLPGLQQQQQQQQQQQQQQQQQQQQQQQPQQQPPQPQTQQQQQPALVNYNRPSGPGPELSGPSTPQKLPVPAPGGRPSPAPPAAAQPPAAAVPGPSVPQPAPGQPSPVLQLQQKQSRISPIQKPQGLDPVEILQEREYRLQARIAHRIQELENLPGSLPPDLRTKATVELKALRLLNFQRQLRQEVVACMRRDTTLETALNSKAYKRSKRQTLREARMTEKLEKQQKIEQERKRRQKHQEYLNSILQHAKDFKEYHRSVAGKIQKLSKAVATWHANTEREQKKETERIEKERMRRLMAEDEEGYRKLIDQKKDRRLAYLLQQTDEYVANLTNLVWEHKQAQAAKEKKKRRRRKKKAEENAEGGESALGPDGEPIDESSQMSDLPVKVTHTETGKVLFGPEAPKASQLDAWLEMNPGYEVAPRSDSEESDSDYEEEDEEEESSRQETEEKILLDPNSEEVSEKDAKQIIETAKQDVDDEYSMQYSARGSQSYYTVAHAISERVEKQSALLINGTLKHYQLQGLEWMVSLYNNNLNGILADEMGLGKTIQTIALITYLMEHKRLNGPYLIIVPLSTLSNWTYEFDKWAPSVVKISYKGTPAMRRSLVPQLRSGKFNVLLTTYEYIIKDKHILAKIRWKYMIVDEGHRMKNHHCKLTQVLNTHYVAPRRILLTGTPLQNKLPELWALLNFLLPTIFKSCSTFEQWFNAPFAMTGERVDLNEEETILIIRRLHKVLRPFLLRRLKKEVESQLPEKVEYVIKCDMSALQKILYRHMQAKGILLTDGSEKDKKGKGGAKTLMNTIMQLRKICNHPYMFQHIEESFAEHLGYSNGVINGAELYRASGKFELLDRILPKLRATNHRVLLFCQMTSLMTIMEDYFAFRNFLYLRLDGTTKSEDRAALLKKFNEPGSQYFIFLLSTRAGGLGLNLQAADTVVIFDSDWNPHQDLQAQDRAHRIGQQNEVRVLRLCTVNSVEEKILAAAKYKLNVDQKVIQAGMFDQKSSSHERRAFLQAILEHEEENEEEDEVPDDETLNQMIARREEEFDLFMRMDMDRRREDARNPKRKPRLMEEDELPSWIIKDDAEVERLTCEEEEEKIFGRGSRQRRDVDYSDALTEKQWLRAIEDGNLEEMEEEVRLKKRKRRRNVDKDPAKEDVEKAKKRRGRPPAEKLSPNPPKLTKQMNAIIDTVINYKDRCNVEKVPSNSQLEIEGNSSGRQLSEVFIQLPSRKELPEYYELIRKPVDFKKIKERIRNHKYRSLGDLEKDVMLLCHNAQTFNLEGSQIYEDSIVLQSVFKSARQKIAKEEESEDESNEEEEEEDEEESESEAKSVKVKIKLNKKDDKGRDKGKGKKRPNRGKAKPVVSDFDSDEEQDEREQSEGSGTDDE

Turning to `Cc1ccc(C(=O)Nc2ccc(N3CCC(N(C)Cc4ccc5c(c4)CN(N4CCC(=O)NC4=O)C5=O)CC3)c(C(F)(F)F)c2)cc1C#Cc1cnc2cccnn12` [GT-08220, N-(4-(4-(((2-(2,4-dioxotetrahydropyrimidin-1(2H)-yl)-1-oxoisoindolin-5-yl)methyl)(methyl)amino)piperidin-1-yl)-3-(trifluoromethyl)phenyl)-3-(imidazo[1,2-b]pyridazin-3-ylethynyl)-4-methylbenzamide], the inhibition at 0.01 µM in assay [1] (MV-4-11, 10 nM, read-out: Inhibition Rate at 10 nM (%)) was -5 to 0%. Moreover, the inhibition at 0.5 µM in assay [1] (MV-4-11, 500 nM, read-out: Inhibition Rate at 500 nM (%)) is 80 to 100%. The “Degradation of substrate protein C-ABL; BCR-ABL (substrate protein remaining %)” value in assay [2] is given as “A (0%≤substrate protein remaining %≤80%)”.
Take `Nc1nnc(-c2ccccc2O)cc1N1CCN(Cc2ccc3c(c2)CN(N2CCC(=O)NC2=O)C3=O)CC1` [GT-04952, 1-(5-((4-(3-amino-6-(2-hydroxyphenyl)pyridazin-4-yl)piperazin-1-yl)methyl)-1-oxoisoindolin-2-yl)dihydropyrimidine-2,4 (1H,3H)-dione]: the “Degradation of substrate protein BRM (substrate protein remaining %)” value in assay [3] is given as “A (0%≤substrate protein remaining %≤80%)”. Further, the “Degradation of substrate protein BRG1 (substrate protein remaining %)” value in assay [4] was “A (0%≤substrate protein remaining %≤80%)”.
For the compound `O=C1CCN(N2C(=O)c3ccc(N4CCC(CN5CCC(N6CCN(c7ncc(C(=O)Nc8ccc(OC(F)(F)Cl)cc8)cc7-c7cc[nH]n7)CC6)CC5)CC4)cc3C2=O)C(=O)N1` [GT-08358, N-(4-(chlorodifluoromethoxy)phenyl)-6-(4-(1-((1-(2-(2,4-dioxotetrahydropyrimidin-1(2H)-yl)-1,3-dioxoisoindolin-5-yl)piperidin-4-yl)methyl)piperidin-4-yl)piperazin-1-yl)-5-(1H-pyrazol-3-yl)nicotinamide], in assay [2], the “Degradation of substrate protein C-ABL; BCR-ABL (substrate protein remaining %)” value was “A (0%≤substrate protein remaining %≤80%)”.
Consider `Nc1nnc(-c2cc(F)ccc2O)cc1N1CCN(CC2CCN(C3CCN(c4ccc5c(c4)C(=O)N(N4CCC(=O)NC4=O)C5=O)CC3)CC2)CC1` [GT-05094, 5-(4-((4-(3-amino-6-(5-fluoro-2-hydroxyphenyl)pyridazin-4-yl)piperazin-1-yl)methyl)-[1,4′-bipiperidin]-1′-yl)-2-(2,4-dioxotetrahydropyrimidin-1(2H)-yl)isoindoline-1,3-dione], for which the “Degradation of substrate protein BRM (substrate protein remaining %)” value in assay [3] is on record as “A (0%≤substrate protein remaining %≤80%)”. For the same compound, the “Degradation of substrate protein BRG1 (substrate protein remaining %)” value in assay [4] is “B (80%<substrate protein remaining %≤100%)”.
The like results for `Nc1nnc(-c2ccccc2O)cc1N1CCN(CC2CCN(c3ccc4c(c3)C(=O)N(N3CCC(=O)NC3=O)C4=O)CC2)CC1` [GT-04954, 5-(4-((4-(3-amino-6-(2-hydroxyphenyl)pyridazin-4-yl)piperazin-1-yl)methyl)piperidin-1-yl)-2-(2,4-dioxotetrahydropyrimidin-1(2H)-yl)isoindoline-1,3-dione] were, in that order, “A (0%≤substrate protein remaining %≤80%)” and “A (0%≤substrate protein remaining %≤80%)”.
Consider `O=C1CCN(N2C(=O)c3cccc(N4CCC(CN5CCN(C6CCN(c7ncc(C(=O)Nc8ccc(OC(F)(F)Cl)cc8)cc7-c7cc[nH]n7)CC6)CC5)CC4)c3C2=O)C(=O)N1` [GT-08361, N-(4-(chlorodifluoromethoxy)phenyl)-6-(4-(4-((1-(2-(2,4-dioxotetrahydropyrimidin-1(2H)-yl)-1,3-dioxoisoindolin-4-yl)piperidin-4-yl)methyl)piperazin-1-yl)piperidin-1-yl)-5-(1H-pyrazol-3-yl)nicotinamide], for which the inhibition at 0.01 µM in assay [5] (setting [7]) is 20 to 30%. Also, the inhibition at 0.5 µM in assay [5] (setting [8]) was in the range of 20 to 30%. Also, in assay [2], the “Degradation of substrate protein C-ABL; BCR-ABL (substrate protein remaining %)” value is on record as “A (0%≤substrate protein remaining %≤80%)”.
In the case of `Nc1nnc(-c2cc(F)ccc2O)cc1N1CCN(Cc2ccc3c(c2)CN(N2CCC(=O)NC2=O)C3=O)CC1` [GT-05061, 1-(5-((4-(3-amino-6-(5-fluoro-2-hydroxyphenyl)pyridazin-4-yl)piperazin-1-yl)methyl)-1-oxoisoindolin-2-yl)dihydropyrimidine-2,4 (1H,3H)-dione], the “Degradation of substrate protein BRM (substrate protein remaining %)” value in assay [3] is on record as “A (0%≤substrate protein remaining %≤80%)”. For the same compound, the “Degradation of substrate protein BRG1 (substrate protein remaining %)” value in assay [4] is listed as “B (80%<substrate protein remaining %≤100%)”.
Turning to `Nc1nnc(-c2cc(F)ccc2O)cc1N1CCN(CC2CCN(c3cccc4c3C(=O)N(N3CCC(=O)NC3=O)C4=O)CC2)CC1` [GT-05069, 4-(4-((4-(3-amino-6-(5-fluoro-2-hydroxyphenyl)pyridazin-4-yl)piperazin-1-yl)methyl)piperidin-1-yl)-2-(2,4-dioxotetrahydropyrimidin-1(2H)-yl)isoindoline-1,3-dione], in assay [3], the “Degradation of substrate protein BRM (substrate protein remaining %)” value is recorded as “A (0%≤substrate protein remaining %≤80%)”. In assay [4], the “Degradation of substrate protein BRG1 (substrate protein remaining %)” value is “A (0%≤substrate protein remaining %≤80%)”.
On to `Cc1ccc(C(=O)Nc2ccc(N3CCN(Cc4ccc5c(c4)C(=O)N(N4CCC(=O)NC4=O)C5=O)CC3)c(C(F)(F)F)c2)cc1C#Cc1cnc2cccnn12` [GT-08219, N-(4-(4-((2-(2,4-dioxotetrahydropyrimidin-1(2H)-yl)-1,3-dioxoisoindolin-5-yl)methyl)piperazin-1-yl)-3-(trifluoromethyl)phenyl)-3-(imidazo[1,2-b]pyridazin-3-ylethynyl)-4-methylbenzamide], for which the “Degradation of substrate protein C-ABL; BCR-ABL (substrate protein remaining %)” value in assay [2] is given as “A (0%≤substrate protein remaining %≤80%)”.
For `O=C1CCN(N2C(=O)c3cccc(N4CCC(CN5CCN(c6ncc(C(=O)Nc7ccc(OC(F)(F)Cl)cc7)cc6-c6cc[nH]n6)CC5)CC4)c3C2=O)C(=O)N1` [GT-08357, N-(4-(chlorodifluoromethoxy)phenyl)-6-(4-((1-(2-(2,4-dioxotetrahydropyrimidin-1(2H)-yl)-1,3-dioxoisoindolin-4-yl)piperidin-4-yl)methyl)piperazin-1-yl)-5-(1H-pyrazol-3-yl)nicotinamide], the “Degradation of substrate protein C-ABL; BCR-ABL (substrate protein remaining %)” value in assay [2] is listed as “A (0%≤substrate protein remaining %≤80%)”.
`Nc1nnc(-c2cc(F)ccc2O)cc1N1CCN(Cc2ccc3c(c2)C(=O)N(N2CCC(=O)NC2=O)C3=O)CC1` [GT-05072, 5-((4-(3-amino-6-(5-fluoro-2-hydroxyphenyl)pyridazin-4-yl)piperazin-1-yl)methyl)-2-(2,4-dioxotetrahydropyrimidin-1(2H)-yl)isoindoline-1,3-dione]: the “Degradation of substrate protein BRM (substrate protein remaining %)” value in assay [3] is “A (0%≤substrate protein remaining %≤80%)”. Also, in assay [4], the “Degradation of substrate protein BRG1 (substrate protein remaining %)” value is “B (80%<substrate protein remaining %≤100%)”.
For the compound `O=C1CCN(N2C(=O)c3ccc(N4CCC(CN5CCN(c6ncc(C(=O)Nc7ccc(OC(F)(F)Cl)cc7)cc6-c6cc[nH]n6)CC5)CC4)cc3C2=O)C(=O)N1` [GT-08356, N-(4-(chlorodifluoromethoxy)phenyl)-6-(4-((1-(2-(2,4-dioxotetrahydropyrimidin-1(2H)-yl)-1,3-dioxoisoindolin-5-yl)piperidin-4-yl)methyl)piperazin-1-yl)-5-(1H-pyrazol-3-yl)nicotinamide], in assay [2], the “Degradation of substrate protein C-ABL; BCR-ABL (substrate protein remaining %)” value was “A (0%≤substrate protein remaining %≤80%)”. Besides, in assay [6] (setting [7]), the inhibition at 0.01 µM is 20 to 30%. Moreover, the inhibition at 0.5 µM in assay [6] (setting [8]) was 30 to 40%.
Take `Nc1nnc(-c2ccccc2O)cc1N1CCN(CC2CCN(C3CCN(c4ccc5c(c4)C(=O)N(N4CCC(=O)NC4=O)C5=O)CC3)CC2)CC1` [GT-05095, 5-(4-((4-(3-amino-6-(2-hydroxyphenyl)pyridazin-4-yl)piperazin-1-yl)methyl)-[1,4′-bipiperidin]-1′-yl)-2-(2,4-dioxotetrahydropyrimidin-1(2H)-yl)isoindoline-1,3-dione]: the “Degradation of substrate protein BRM (substrate protein remaining %)” value in assay [3] is given as “A (0%≤substrate protein remaining %≤80%)”. Also, in assay [4], the “Degradation of substrate protein BRG1 (substrate protein remaining %)” value is given as “B (80%<substrate protein remaining %≤100%)”.

By inhibition is commonly meant the change of the read-out against control, counted positive when it falls.
